These results are taken from patent publication US10336775B2 (Asceneuron SA, priority 2014, dated 2019).

The target in one assay is His-Tagged hOGA (human O-GlcNAcase) (Homo sapiens (Human), UniProt O60502). The experiment in a line: Human O-GlcNAcase enzyme inhibition assay (Example B01). To be noted: OGA IC50 (M), OGA enzyme inhibition assay; activity range classes defined in μM. The class given is biochemical.
Chain of His-Tagged hOGA (human O-GlcNAcase) (O60502 whole entry): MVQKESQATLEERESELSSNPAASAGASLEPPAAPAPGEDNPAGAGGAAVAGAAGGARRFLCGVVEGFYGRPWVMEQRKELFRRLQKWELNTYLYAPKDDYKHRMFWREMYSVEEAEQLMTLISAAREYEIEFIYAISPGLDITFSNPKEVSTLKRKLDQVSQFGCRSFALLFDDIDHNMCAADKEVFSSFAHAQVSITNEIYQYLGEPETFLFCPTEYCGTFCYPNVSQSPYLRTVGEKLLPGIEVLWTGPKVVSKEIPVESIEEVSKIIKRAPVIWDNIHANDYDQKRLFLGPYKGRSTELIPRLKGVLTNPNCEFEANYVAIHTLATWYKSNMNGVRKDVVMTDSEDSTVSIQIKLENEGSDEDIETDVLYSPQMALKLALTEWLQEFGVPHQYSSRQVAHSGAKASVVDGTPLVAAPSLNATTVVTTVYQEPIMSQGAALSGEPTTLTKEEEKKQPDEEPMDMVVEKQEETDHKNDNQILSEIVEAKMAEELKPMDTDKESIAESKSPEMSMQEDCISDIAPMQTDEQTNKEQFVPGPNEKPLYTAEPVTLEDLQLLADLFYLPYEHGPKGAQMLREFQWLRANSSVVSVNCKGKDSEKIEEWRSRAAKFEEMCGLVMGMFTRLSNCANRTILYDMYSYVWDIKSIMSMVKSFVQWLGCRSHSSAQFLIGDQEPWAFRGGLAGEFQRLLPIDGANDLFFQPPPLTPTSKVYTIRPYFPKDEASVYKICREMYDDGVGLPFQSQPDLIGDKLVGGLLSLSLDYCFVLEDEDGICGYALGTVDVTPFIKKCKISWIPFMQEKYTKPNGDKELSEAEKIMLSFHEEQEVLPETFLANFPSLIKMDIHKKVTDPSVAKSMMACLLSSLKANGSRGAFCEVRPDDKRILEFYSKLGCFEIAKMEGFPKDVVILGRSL
Take `CC(c1ccc2c(c1)OCO2)N1CCN(c2ncc(C(=O)N(C)C)s2)CC1` (racemic) [Example 47, 2-(4-(1-(Benzo[d](1,3)dioxol-5-yl)ethyl)piperazin-1-yl)-N,N-dimethylthiazole-5-carboxamide]: the IC50 is 5e-08 to 2e-07 M.
Regarding `CC(=O)Nc1cnc(N2CCN(C(C)c3ccc4c(c3)OCO4)CC2)nc1` (racemic) [Example 72, N-(2-(4-(1-(benzo[d][1,3]dioxol-5-yl)ethyl)piperazin-1-yl)pyrimidin-5-yl)acetamide], the IC50 was less than 5e-08 M.
The same measure, in the same setting: as for `CC(c1ccc2cccnc2c1)N1CCN(c2ncccn2)CC1` (racemic) [Example 91, 7-(1-(4-(pyrimidin-2-yl)piperazin-1-yl)ethyl)quinoline], the figure is 5e-08 to 2e-07 M.

Still in this assay, the particulars now being: OGA enzyme inhibition assay; activity range classes defined in μM; read-out: OGA IC50.
Regarding `COc1ccnc(N2CCN(C(C)c3ccc4c(c3)OCO4)CC2)n1` (racemic) [Example 39, 2-(4-(1-(Benzo[d][1,3]dioxol-5-yl)ethyl)piperazin-1-yl)-4-methoxypyrimidine], the half-inhibitory concentration (IC50) lay within 5e-08 to 2e-07 M.
Still for that read-out and setting: as for `CC(c1ccc2c(c1)OCO2)N1CCN(c2ccnc(Cl)n2)CC1` (racemic) [Example 40, 4-(4-(1-(Benzo[d][1,3]dioxol-5-yl)ethyl)piperazin-1-yl)-2-chloropyrimidine], the figure is 5e-08 to 2e-07 M; as for `CC(c1ccc2c(c1)OCO2)N1CCN(c2nnc(N)s2)CC1` (racemic) [Example 41, 5-(4-(1-(benzo[d][1,3]dioxol-5-yl)ethyl)piperazin-1-yl)-1,3,4-thiadiazol-2-amine], 5e-08 to 2e-07 M.
Same read-out and setting: as for `CC(c1ccc2c(c1)OCO2)N1CCN(c2nc(C(=O)N(C)C)cs2)CC1` (racemic) [Example 42, 2-(4-(1-(benzo[d][1,3]dioxol-5-yl)ethyl)piperazin-1-yl)-N,N-dimethylthiazole-4-carboxamide], the figure is 2e-07 to 1e-06 M; as for `CC(C)NC(=O)c1cnc(N2CCN(C(C)c3ccc4c(c3)OCO4)CC2)s1` (racemic) [Example 43, 2-(4-(1-(Benzo[d][1,3]dioxol-5-yl)ethyl)piperazin-1-yl)-N-isopropylthiazole-5-carboxamide], 5e-08 to 2e-07 M; as for `CCCNc1ccnc(N2CCN(C(C)c3ccc4c(c3)OCO4)CC2)n1` (racemic) [Example 45, 2-(4-(1-(Benzo[d][1,3]dioxol-5-yl)ethyl)piperazin-1-yl)-N-propylpyrimidin-4-amine], 2e-07 to 1e-06 M.
`CC(c1ccc2c(c1)OCO2)N1CCN(c2ccnc(N)n2)CC1` (racemic) [Example 46, 4-(4-(1-(Benzo[d][1,3]dioxol-5-yl)ethyl)piperazin-1-yl)pyrimidin-2-amine]: the IC50 was 5e-08 to 2e-07 M.
On the same count and under the same terms, as for `CC(c1ccc2c(c1)OCO2)N1CCN(c2ncc(C(N)=O)s2)CC1` (racemic) [Example 48, 2-(4-(1-(Benzo[d](1,3)dioxol-5-yl)ethyl)piperazin-1-yl)thiazole-5-carboxamide], the figure is less than 5e-08 M; as for `CC(c1ccc2c(c1)OCCO2)N1CCN(c2nc(C(N)=O)cs2)CC1` (racemic) [Example 49, 2-(4-(1-(2,3-Dihydrobenzo[b][1,4]dioxin-6-yl)ethyl)piperazin-1-yl)thiazole-4-carboxamide], 2e-07 to 1e-06 M; as for `CNC(=O)c1csc(N2CCN(C(C)c3ccc4c(c3)OCCO4)CC2)n1` (racemic) [Example 50, 2-(4-(1-(2,3-dihydrobenzo[b][1,4]dioxin-6-yl)ethyl)piperazin-1-yl)-N-methylthiazole-4-carboxamide], 5e-08 to 2e-07 M.
For `CCOC(=O)c1cnc(N2CCN(C(C)c3ccc4c(c3)OCO4)CC2)nc1` (racemic) [Example 51, Ethyl 2-(4-(1-(benzo[d][1,3]dioxol-5-yl)ethyl)piperazin-1-yl)pyrimidine-5-carboxylate], the IC50 fell in the range of 5e-08 to 2e-07 M.
Regarding `CC(c1ccc2c(c1)OCO2)N1CCN(c2ncc(CO)cn2)CC1` (racemic) [Example 52, (2-(4-(1-(benzo[d][1,3]dioxol-5-yl)ethyl)piperazin-1-yl)pyrimidin-5-yl)methanol], the IC50 was less than 5e-08 M.
As for `CC(c1ccc2c(c1)CCO2)N1CCN(c2ncccn2)CC1` (racemic) [Example 53, 2-(4-(1-(2,3-dihydrobenzofuran-5-yl)ethyl)piperazin-1-yl)pyrimidine], the concentration for half-maximal inhibition (IC50) was 2e-07 to 1e-06 M.
Same read-out and setting: as for `CC(=O)Nc1nccc(N2CCN(C(C)c3ccc4c(c3)OCO4)CC2)n1` (racemic) [Example 54, N-(4-(4-(1-(Benzo[d][1,3]dioxol-5-yl)ethyl)piperazin-1-yl)pyrimidin-2-yl)acetamide], the figure is 5e-08 to 2e-07 M; as for `CC(c1ccc2c(c1)OCO2)N1CCN(c2ccc(N)cn2)CC1` (racemic) [Example 58, 6-(4-(1-(Benzo[d][1,3]dioxol-5-yl)ethyl)piperazin-1-yl)pyridin-3-amine], 5e-08 to 2e-07 M.
In the case of `CC(c1ccc2c(c1)OCO2)N1CCN(c2ncc(C(=O)N3CCOCC3)s2)CC1` (racemic) [Example 67, (2-(4-(1-(Benzo[d][1,3]dioxol-5-yl)ethyl)piperazin-1-yl)thiazol-5-yl)(morpholino)methanone], the IC50 lay in the range of 5e-08 to 2e-07 M.
For the compound `CC(c1ccc2c(c1)OCO2)N1CCN(c2ncc(N)cn2)CC1` (racemic) [Example 70, 2-(4-(1-(Benzo[d][1,3]dioxol-5-yl)ethyl)piperazin-1-yl)pyrimidin-5-amine], the concentration for half-maximal inhibition (IC50) fell in the range of 2e-07 to 1e-06 M.
On the same count and under the same terms, as for `CC(c1ccc2c(c1)OCCO2)N1CCN(c2ncc(C(=O)N3CCC(O)CC3)s2)CC1` (racemic) [Example 73, (2-(4-(1-(2,3-Dihydrobenzo[b][1,4]dioxin-6-yl)ethyl)piperazin-1-yl)thiazol-5-yl)(4-hydroxypiperidin-1-yl)methanone], the figure is 5e-08 to 2e-07 M; as for `CC(=O)Nc1nnc(N2CCN(C(C)c3ccc(F)c(F)c3)CC2)s1` (racemic) [Example 76, N-(5-(4-(1-(3,4-difluorophenyl)ethyl)piperazin-1-yl)-1,3,4-thiadiazol-2-yl)acetamide], 1e-06 to 1e-05 M.
Still for that read-out and setting: as for `CC(c1ccc2c(c1)OCO2)N1CCN(c2ncc(CN3CCOCC3)s2)CC1` (racemic) [Example 79, 4-((2-(4-(1-(Benzo[d][1,3]dioxol-5-yl)ethyl)piperazin-1-yl)thiazol-5-yl)methyl)morpholine], the figure is 5e-08 to 2e-07 M.
Regarding `CC(=O)N(C)Cc1cnc(N2CCN(C(C)c3ccc4c(c3)OCO4)CC2)s1` (racemic) [Example 80, N-((2-(4-(1-(benzo[d][1,3]dioxol-5-yl)ethyl)piperazin-1-yl)thiazol-5-yl)methyl)-N-methylacetamide], the 50% inhibitory concentration (IC50) was less than 5e-08 M.
On the same count and under the same terms, as for `CC(c1ccc2nccnc2c1)N1CCN(c2ncccn2)CC1` (racemic) [Example 83, 6-(1-(4-(pyrimidin-2-yl)piperazin-1-yl)ethyl)quinoxaline], the figure is 5e-08 to 2e-07 M; as for `CC(=O)Nc1ncc(N2CCN(C(C)c3ccc4c(c3)OCO4)CC2)s1` (racemic) [Example 86, N-(5-(4-(1-(benzo[d][1,3]dioxol-5-yl)ethyl)piperazin-1-yl)thiazol-2-yl)acetamide], less than 5e-08 M.
Still for that read-out and setting: under `CCOC(=O)c1cnc(N2CCN(C(C)c3ccc4nccnc4c3)CC2)s1` (racemic) [Example 90, Ethyl-2-(4-(1-(quinoxalin-6-yl)ethyl)piperazin-1-yl)thiazole-5-carboxylate] stands 2e-07 to 1e-06 M.

Still in this assay, the particulars now being: measured according to Example B01.
In the case of `CC(c1ccc2c(c1)OCO2)N1CCN(c2ncc(C(N)=O)s2)CC1` (racemic) [Example 48, 2-(4-(1-(Benzo[d](1,3)dioxol-5-yl)ethyl)piperazin-1-yl)thiazole-5-carboxamide], the “OGA inhibitor activity (in words)” value is given as “very potent OGA inhibitors”.
As for `CC(c1ccc2c(c1)OCO2)N1CCN(c2ncc(CO)cn2)CC1` (racemic) [Example 52, (2-(4-(1-(benzo[d][1,3]dioxol-5-yl)ethyl)piperazin-1-yl)pyrimidin-5-yl)methanol], the “OGA inhibitor activity (in words)” value is “very potent OGA inhibitors”.
Turning to `CC(=O)Nc1cnc(N2CCN(C(C)c3ccc4c(c3)OCO4)CC2)nc1` (racemic) [Example 72, N-(2-(4-(1-(benzo[d][1,3]dioxol-5-yl)ethyl)piperazin-1-yl)pyrimidin-5-yl)acetamide], the “OGA inhibitor activity (in words)” value is recorded as “very potent OGA inhibitors”.
